{
  "source": "patent US20260132165A1",
  "about": "“MODIFIED NUCLEOSIDE ANALOGUE AND USE THEREOF, AND NUCLEOSIDE ANALOGUE-CONTAINING DOUBLE-STRANDED OLIGONUCLEOTIDE AND USE THEREOF” (RIGERNA THERAPEUTICS (BEIJING) CO., LTD., priority 2023, published 2026)",
  "key": {"target gene SOD1 [1]": {"system": "target gene SOD1", "assay": "Test Example 4: lipid conjugated siRNA sequences with different carbon chain lengths, SOD1 in mouse brain, lateral ventricle administration", "format": "in vivo, C57BL/6j mice", "parameters": "Right hemisphere Mean value of inhibition rate / Left hemisphere Mean value of inhibition rate: unit not given here", "settings": "D5", "method": "6-8 Week-old C57BL/6j mice were randomly grouped by body weight. Mice in each group were administered with siRNA by lateral ventricle administration, with an administration dose per mouse depending on a specific test. Taking Bregma in mouse brain as point 0 (origin), coordinates of right ventricle were found using the cerebral stereotaxic apparatus and position was marked on surface of skull (position of lateral ventricle was AP (anteroposterior, bregma anterior and posterior): −0.58 mm, ML (mediolateral, left and right of middle raphe): −1.2 mm, DV (dorsoventral, up and down cerebral dura mater plane): −2.2 mm). A dental electric drill was used to drill in the skull above a position of interest, and then medicament was injected into the lateral ventricle by a micro-dosing pump, wherein a total injection volume was 5 μL, and injection duration was 10 min. Needle was retained for 5 min after completion of injection, and then slowly withdrawn. Afterwards, needle hole was sealed with biomedical glue, and then head skin was adhered. After animals woke up, the animals were returned back to animal house and further fed. PBS control group was administered with the same volume of siRNA-free PBS solution. The day of administration was recorded as 0 day (D0), and the mice were sacrificed at observation point after the administration. Different parts of brain region were respectively taken and stored in the RNAlater.\n(§1) RNA extraction: the above tissue samples were taken out from the RNAlater, and smashed for 60 s in Tissuelyser type II full-automatic tissue homogenizer, and total RNAs of various tissue samples were extracted using the full-automatic nucleic acid extraction instrument and the nucleic acid extraction kit from Zhejiang Hanwei Science and Technology Co. Ltd. according to methods described in instructions.\n(§2) Reverse transcription reaction: 1 μg of the extracted total RNAs of the tissue samples were taken, and configured into 20 μL of reverse transcription system according to a method described in kit instructions by using a reverse transcription kit (Reverse Transcription System, A3500) from Promega Corporation and selecting Oligo (dT)15 reverse transcription primers, and the reverse transcription reaction was completed. After the reaction was ended, 80 μL of RNase-Free water was added into the reverse transcription system to provide cDNA solution for Real-time PCR detection.\n(§3) Real-time PCR detection: 20 μL of Real-time PCR reaction system per PCR detection well was configured according to a method described in kit instructions using SYBR™ Select Master Mix (Catalog number: 4472908) reagent from ABI company. Each detection system contained 5 μL of cDNA template obtained from the above reverse transcription reaction, 10 μL of SYBR™ Select Master Mix, 0.5 μL of 10 μM upstream primers, 0.5 μL of 10 μM downstream primers, and 4 μL of RNase-Free H2O. The configured reaction system was subjected to Real-time PCR amplification on ABI StepOnePlus PCR instrument by a three-step method, wherein an amplification procedure was pre-denaturation at 95° C. for 10 min, then denaturation at 95° C. for 30 s, annealing at 60° C. for 30 s, and extension at 72° C. for 30 s; and processes of denaturation, annealing, and extension were repeated for 40 cycles. Gene expression differences were calculated by the ΔΔCt method after completion of the procedure.\nIn the real-time fluorescence quantitative PCR method, relative quantitative calculation of remaining expression level and inhibition rate of gene mRNA of interest in various test groups was performed by the ΔΔCt method, and the calculation method is as follows: […]"}, "target gene SOD1 [2]": {"system": "target gene SOD1", "assay": "Test Example 7: inhibitory activity of lipid conjugated siRNA sequences on SOD1 in mouse adipose and muscle tissues (tail vein injection)", "format": "in vivo, C57BL/6j mice", "method": "as §1, §2, §3\nIn the real-time fluorescence quantitative PCR method, relative quantitative calculation of remaining expression level and inhibition rate of gene mRNA of interest in various test groups was performed by the ΔΔCt method, and the calculation method is as follows:\nThe present test example evaluated, by an evaluation method for inhibitory activity on a target gene in mice, the inhibitory activity of siRNA sequence RZ899090 with the sense strand with the NM073 conjugation at Position 4, siRNA sequence RZ899091 with the sense strand with the NM074 conjugation at Position 4, siRNA sequence RZ899078 with the sense strand with the NM202 conjugation at Position 6 and siRNA reference sequence RZ899093 with the sense strand with the Uhd conjugation at Position 4, and siRNA reference sequence RZ899076 with the sense strand with the NM200 conjugation at Position 4 on the target gene SOD1 of interest in mice. The above conjugation vectors were different in that NM073 was C18 aliphatic chain, NM074 was C20 aliphatic chain, and NM0202 and NM0200 were C22 aliphatic chains.\n6-8 Week-old C57BL/6j mice were randomly grouped by body weight, 15 per group, 6 groups in total. Mice in each group were dosed with the above siRNA conjugates by tail vein injection, with an administration dose of 5 mg/kg per mouse, and an administration volume of 150 μL. PBS control group was administered with the same volume of siRNA conjugate-free PBS solution. The day of administration was recorded as D0, and 5 mice in each group were sacrificed on D14, D28 and D49 after administration. Tissues such as paragonadal fat, left hind leg quadriceps muscle, heart, liver, and kidney were respectively taken and stored in the RNAlater. RNA extraction, reverse transcription, and real-time fluorescence quantitative detection were performed on various tissues according to the above method, and gene expression differences were calculated by the above ΔΔCt method."}},
  "data": [
    {"substance": "RZ899091: siRNA sequence with the sense strand with the NM074 (C20) conjugation at Position 4; SEQ ID NO: 16 / 23 (sense UUUNAAUCCUCACUCUAAA; antisense UUUAGAGUGAGGAUUAAAAUG; NM074 (C20) conjugate at sense position 4; modified_base 1..2 OTHER; 2'-methoxy and 5'-thiophosphate modified nucleotides; modified_base 3 OTHER; 2'-methoxy modified nucleotide; modified_base 4 OTHER; n is the synthetic nucleotide analog NM074 as described in the disclosure.; modified_base 5..6 OTHER; 2'-methoxy modified nucleotides; modified_base 7..10 OTHER; 2'-fluoro modified nucleotides; modified_base 11..19 OTHER; 2'-methoxy modified ; modified_base 1 OTHER; 2'-methoxy and 5'-thiovinylphosphonate modified nucleotide; modified_base 2 OTHER; 2'-fluoro and 5'-thiophosphate modified …)", "values": [
      {"measurement": "inhibitory activity compared with the vector-free siRNA sequence RX599002", "setting": "target gene SOD1 [1]; left and right hemisphere, lateral ventricle 150 μg per mouse", "value": "superior inhibitory activity"},
      {"measurement": "Left hemisphere Mean value of inhibition rate", "setting": "target gene SOD1 [1]; left hemisphere (non-administration side), lateral ventricle, 150 μg per mouse", "value": 70.41},
      {"measurement": "activity compared with Uhd conjugated reference sequence RZ899093 and NM200 (C22) conjugated reference sequence RZ899076", "setting": "target gene SOD1 [1]; right hemisphere (administration side) and left hemisphere (non-administration side), 150 μg per mouse", "value": "substantially comparable or superior activity"},
      {"measurement": "Right hemisphere Mean value of inhibition rate", "setting": "target gene SOD1 [1]; right hemisphere (administration side), lateral ventricle, 150 μg per mouse", "value": 82.32},
      {"measurement": "inhibitory action on liver and kidney tissues", "setting": "target gene SOD1 [2]; liver and kidney (non-target tissues), tail vein 5 mg/kg, D28 and D49", "value": "no inhibitory action"},
      {"measurement": "D 14 % Mean value of inhibition rate", "setting": "target gene SOD1 [2]; mouse adipose tissues (paragonadal fat), tail vein injection 5 mg/kg, D14", "value": 86.81, "unit": "%"},
      {"measurement": "D 28 % Mean value of inhibition rate", "setting": "target gene SOD1 [2]; mouse adipose tissues (paragonadal fat), tail vein injection 5 mg/kg, D28", "value": 86.36, "unit": "%"},
      {"measurement": "D 49 % Mean value of inhibition rate", "setting": "target gene SOD1 [2]; mouse adipose tissues (paragonadal fat), tail vein injection 5 mg/kg, D49", "value": 81.73, "unit": "%"},
      {"measurement": "inhibitory activity compared with the NM200 conjugated reference sequence RZ899076", "setting": "target gene SOD1 [2]; mouse adipose tissues, tail vein 5 mg/kg, D14", "value": "on par"},
      {"measurement": "gene inhibitory effect compared with RZ899076", "setting": "target gene SOD1 [2]; mouse adipose tissues, tail vein 5 mg/kg, D49", "value": "superior gene inhibitory effect"},
      {"measurement": "inhibitory activity compared with Uhd conjugated reference sequence RZ899093 and NM200 conjugated reference sequence RZ899076", "setting": "target gene SOD1 [2]; mouse heart tissues, tail vein 5 mg/kg, D14, D28 and D49", "value": "superior inhibitory activity"},
      {"measurement": "D 14 % Mean value of inhibition rate", "setting": "target gene SOD1 [2]; mouse heart tissues, tail vein injection 5 mg/kg, D14", "value": 87.44, "unit": "%"},
      {"measurement": "D 28 % Mean value of inhibition rate", "setting": "target gene SOD1 [2]; mouse heart tissues, tail vein injection 5 mg/kg, D28", "value": 82.78, "unit": "%"},
      {"measurement": "D 49 % Mean value of inhibition rate", "setting": "target gene SOD1 [2]; mouse heart tissues, tail vein injection 5 mg/kg, D49", "value": 81.89, "unit": "%"},
      {"measurement": "Kidney D 14 % Mean value of inhibition rate", "setting": "target gene SOD1 [2]; mouse kidney, tail vein injection 5 mg/kg, D14", "value": 31.71, "unit": "%"},
      {"measurement": "Kidney D 28 % Mean value of inhibition rate", "setting": "target gene SOD1 [2]; mouse kidney, tail vein injection 5 mg/kg, D28", "value": 3.50, "unit": "%"},
      {"measurement": "Kidney D 49 % Mean value of inhibition rate", "setting": "target gene SOD1 [2]; mouse kidney, tail vein injection 5 mg/kg, D49", "value": 9.97, "unit": "%"},
      {"measurement": "Liver D 14 % Mean value of inhibition rate", "setting": "target gene SOD1 [2]; mouse liver, tail vein injection 5 mg/kg, D14", "value": 49.04, "unit": "%"},
      {"measurement": "Liver D 28 % Mean value of inhibition rate", "setting": "target gene SOD1 [2]; mouse liver, tail vein injection 5 mg/kg, D28", "value": 13.03, "unit": "%"},
      {"measurement": "Liver D 49 % Mean value of inhibition rate", "setting": "target gene SOD1 [2]; mouse liver, tail vein injection 5 mg/kg, D49", "value": 7.59, "unit": "%"},
      {"measurement": "D 14 % Mean value of inhibition rate", "setting": "target gene SOD1 [2]; mouse skeletal muscle tissues (left hind leg quadriceps muscle), tail vein injection 5 mg/kg, D14", "value": 69.80, "unit": "%"},
      {"measurement": "D 28 % Mean value of inhibition rate", "setting": "target gene SOD1 [2]; mouse skeletal muscle tissues (left hind leg quadriceps muscle), tail vein injection 5 mg/kg, D28", "value": 72.24, "unit": "%"},
      {"measurement": "D 49 % Mean value of inhibition rate", "setting": "target gene SOD1 [2]; mouse skeletal muscle tissues (left hind leg quadriceps muscle), tail vein injection 5 mg/kg, D49", "value": 41.89, "unit": "%"},
      {"measurement": "inhibitory activity in mouse skeletal muscle tissues", "setting": "target gene SOD1 [2]; skeletal muscle, tail vein 5 mg/kg", "value": "certain inhibitory activity"}
    ]}
  ]
}
